# Key:
# normal human cells HSF = experiment: MTT cytotoxicity assay, HSF; assay type: cell-based; conditions: treatment 48 h
# Experimental: (§1) 3-(4,5-Dimethylthiazol-2-yl)-2, 5-diphenyltetrazolium bromide (MTT) method was used to assay the cytotoxicity in vitro. Complexes 1–3, ligands (L1, L2, and L3), Ni (CH3COO)2, and cisplatin were dissolved in DMSO at the concentration of 20 mM as a stock solution for subsequent testing. Four different cancer cell lines (MCF-7, SGC-7901, Eca-109, and HepG2) and one normal cell line (HSF) were seeded in 96-well and cultured at 37 °C in 5% CO2. After 24 h, the medium was replaced by different concentrations of complex and incubated for 48 h. 10 μL MTT dye (5 mg/mL) was added to each well and incubated for another 4 h. After that, the medium was removed and DMSO (100 μL) was added to solubilize the MTT formazan. A microplate reader (Bio-Rad iMark™) was used to measure the OD value of each well at a wavelength of 490 nm. Each experiment was repeated at least three times, and GraphPad Prism 5.0 was used to analyze the IC50 values.
# breast cancer MCF-7 = experiment: MTT cytotoxicity assay, MCF-7; assay type: cell-based, human; conditions: treatment 48 h
# Experimental: as §1
# [1] = tested on: esophageal cancer Eca-109; experiment: MTT cytotoxicity assay, Eca-109; assay type: cell-based, human; conditions: treatment 48 h
# Experimental: as §1
# [2] = tested on: hepatocellular carcinoma HepG2; experiment: MTT cytotoxicity assay, HepG2; assay type: cell-based, human; conditions: treatment 48 h
# Experimental: as §1
# gastric cancer SGC-7901 = experiment: MTT cytotoxicity assay, SGC-7901; assay type: cell-based, human; conditions: treatment 48 h
# Experimental: as §1
# Eca-109 cells [3] = experiment: Annexin V-PE/7-AAD staining apoptosis assay by flow cytometry (with or without NAC or 3-MA pretreatment); assay type: cell-based, human; conditions: for percentage of apoptotic cells: 24 h, control 7.30%
# Experimental: N-acetyl-L-cysteine (NAC), as a ROS scavenger, was added in a medium for 1 h before the addition of complex 2 to examine the effect of ROS on cell viability. The percentage of apoptotic cells was detected by Annexin V-PE/7-AAD staining assay after complex 2 treatment with or without NAC.
# Different stages of apoptosis induced by complex 2 were determined by Annexin V-PE and 7-AAD staining according to the manufacture's protocol for the Annexin V Apoptosis Detection Kit (BD, Bioscience). Eca-109 cells were seeded in a 6-well plate with a density of 2 × 10^5 cells per well and cultured at 37°C in 5% CO2 for 24 h. Then, different concentrations of complex 2 were added into the above well and incubated for another 24 h. The cells were resuspended in binding buffer, stained with 5 μL Annexin V-PE and 5 μL 7-AAD at room temperature for 15 min, and analyzed using the flow cytometer (BD FACS Aria III).
# 3-MA, as an autophagic inhibitor, was added in a medium for 1 h before the addition of complex 2 to examine the effect of autophagy on cell viability. The percentage of apoptotic cells was detected by Annexin V-PE/7-AAD staining assay after complex 2 treatment with or without 3-MA.
# Bcl-xL = experiment: Western blot assay, Bcl-xL; assay type: cell-based, human; conditions: Eca-109, 24 h, concentration-dependent
# Experimental: (§2) After incubation with different concentrations of complex 2, cells were harvested in a radioimmunoprecipitation assay (RIPA) buffer with protease inhibitors and phosphatase inhibitors. BCA Protein Assay Kit was used to determine the protein concentration. Then, the expression levels of proteins associated with Bcl-2 family and autophagy were measured by Western blot assay.
# Eca-109 cells [4] = experiment: Hoechst 33342 staining, fluorescence microscopy; assay type: cell-based, human; conditions: Eca-109, 20 μM and 40 μM, 24 h
# Experimental: With the density of 2 × 10^5 cells per well, Eca-109 cells were cultured in a 6-well plate for 24 h. After that, the medium was replaced by different concentrations of complex 2 and incubated for another 24 h. Then, cells were washed twice with ice-cold PBS, stained with 10 μg/mL Hoechst 33342 for 15 minutes, and photographed by fluorescence microscopy (Nikon Eclipse Ti–E, Nikon Instruments Inc., Japan).
# LC3B-II = experiment: Western blot assay, LC3B-II; assay type: cell-based, human; conditions: Eca-109, 24 h, concentration-dependent
# Experimental: as §2
# Eca-109 cells [5] = experiment: Intracellular ROS level, DCFH-DA probe; assay type: cell-based, human; conditions: Eca-109, 20 μM and 40 μM, 24 h
# Experimental: Eca-109 cells were seeded into a 6-well plate at a density of 2 × 10^5 cells per well and incubated for 24 h. Then, the medium was replaced and incubated with different concentrations of complex 2 for another 24 h. After that, cells were washed twice with ice-cold PBS, stained with 10 μM DCFH-DA for 30 minutes, and photographed by fluorescence microscopy (Nikon Eclipse Ti–E, Nikon Instruments Inc., Japan).
# Beclin-1 = experiment: Western blot assay, Beclin-1; assay type: cell-based, human; conditions: Eca-109, 24 h, concentration-dependent
# Experimental: as §2
# Eca-109 cells [6] = experiment: Mitochondrial membrane potential by JC-1 staining, flow cytometry; assay type: cell-based, human; conditions: 24 h, control 4.69%
# Experimental: After being treated with different concentrations of complex 2, the cells were collected and incubated in 500 μL PBS containing 10 μg/mL JC-1 for 20 min at 37°C in the dark. Then, the cells were resuspended in PBS and analyzed by flow cytometry (BD FACS Aria III).
# p62 = experiment: Western blot assay, p62; assay type: cell-based, human; conditions: Eca-109, 24 h, concentration-dependent
# Experimental: as §2
# Eca-109 cells [7] = experiment: AO/EB double staining, fluorescence microscopy; assay type: cell-based, human; conditions: Eca-109, 20 μM and 40 μM, 24 h
# Experimental: AO/EB double staining was used to observe the changes in apoptotic cells. Eca-109 cells were cultured in a 6-well plate for 24 h. Then, cells were treated with different concentrations of complex 2 for another 24 h. After that, cells were washed twice with ice-cold PBS, stained with 100 μg/mL AO/EB for 10 minutes, and photographed by fluorescence microscopy (Nikon Eclipse Ti–E, Nikon Instruments Inc., Japan).
# Bcl-2 = experiment: Western blot assay, Bcl-2; assay type: cell-based, human; conditions: Eca-109, 24 h, concentration-dependent
# Experimental: as §2
# Eca-109 cells [8] = experiment: Cell cycle arrest assay, PI staining, flow cytometry; assay type: cell-based, human; conditions: for percentage of cells in S phase / percentage in the cell at the G2/M phase / percentage in the cell at the G0/G1 phase: 24 h; for percentage in the cell at the G2/M phase: control 6.35%; for percentage in the cell at the G0/G1 phase: control 63.82%
# Experimental: After treatment with different concentrations of complex 2, the cells were collected and fixed with 70% ethanol for the night. Then, the cells were incubated in 500 μL PBS containing Triton X-100 (0.1% v/v), RNase A (0.2 mg/mL), and propidium iodide (PI, 0.02 mg/mL) for 15 min. Then, the cells were analyzed by flow cytometry (BD FACS Aria III).
# Eca-109 cells [9] = experiment: Autophagy assay, MDC staining; assay type: cell-based, human; conditions: Eca-109, 20 μM and 40 μM, 24 h, compared to the control group
# Experimental: Eca-109 cells were seeded in 6-well plates and incubated at 37 °C in 5% CO2 for 24 h. Then, the medium was replaced with different concentrations of complex 2 for another 24 h. After that, the medium was removed and the cells were washed twice with ice-cold PBS. Then, the cells were stained with MDC (monodansylcadaverine) solution (50 μM) for 15 min, and the data were obtained by flow cytometry (BD FACS Aria III).
# Bad = experiment: Western blot assay, Bad; assay type: cell-based, human; conditions: Eca-109, 24 h, concentration-dependent
# Experimental: as §2
# Bax = experiment: Western blot assay, Bax; assay type: cell-based, human; conditions: Eca-109, 24 h, concentration-dependent
# Experimental: as §2
smiles,measurement,setting,value
"O=C1[O][Ni][O]c2ccccc2C=N[C@@H]1Cc1c[nH]c2ccccc12.c1cnc2c(c1)ccc1cccnc12 [Complex 1, [Ni (Trp-sal) (phen) (CH3OH)]]",IC50,normal human cells HSF,60.9 ± 1.76 µM
same,IC50,breast cancer MCF-7,75.75 ± 0.41 µM
same,IC50,[1],23.9 ± 2.54 µM
same,IC50,[2],> 80 µM
same,IC50,gastric cancer SGC-7901,34 ± 2.5 µM
COc1cccc(C=N[C@H](Cc2c[nH]c3ccccc23)C(=O)O)c1O [Complex L2],IC50,breast cancer MCF-7,> 80 µM
same,IC50,[1],> 80 µM
same,IC50,[2],> 80 µM
same,IC50,gastric cancer SGC-7901,> 80 µM
O=C(O)C(Cc1c[nH]c2ccccc12)N=Cc1ccccc1O (stereo not drawn) [Complex L1],IC50,breast cancer MCF-7,> 80 µM
same,IC50,[1],> 80 µM
same,IC50,[2],> 80 µM
same,IC50,gastric cancer SGC-7901,> 80 µM
"N.N.[Cl][Pt][Cl] [Cisplatin, reference compound]",IC50,normal human cells HSF,17.1 ± 1.31 µM
same,IC50,breast cancer MCF-7,12.3 ± 0.75 µM
same,IC50,[1],11.9 ± 0.19 µM
same,IC50,[2],13.9 ± 0.58 µM
same,IC50,gastric cancer SGC-7901,11.7 ± 1.45 µM
"Cn1cnc(N)c2ncnc1-2 [Complex 3-MA, 3-methyladenine, reference compound]",toxicity toward cells,"Eca-109 cells [3]; Eca-109, 3-MA alone",nontoxicity
"CC(=O)[O-].CC(=O)[O-].[Ni+2] [Ni (CH3COO)2, reference compound]",IC50,breast cancer MCF-7,> 80 µM
same,IC50,[1],43.5 ± 1.34 µM
same,IC50,[2],> 80 µM
same,IC50,gastric cancer SGC-7901,41.4 ± 0.87 µM
"CO.CO.CO.COc1cccc(C=N[C@H](Cc2c[nH]c3ccccc23)C(=O)[O-])c1[O-].[Ni+2].c1cnc2c(c1)ccc1cccnc12 [Complex 2, [Ni (Trp-o-van) (phen) (CH3OH)]•2CH3OH]",expression level of Bcl-xL,Bcl-xL,significantly decreased
same,IC50,normal human cells HSF,23.9 ± 0.74 µM
same,"apoptotic characteristics, Hoechst 33342 staining",Eca-109 cells [4],apoptotic characteristics were also observed
same,IC50,breast cancer MCF-7,16.1 ± 1.32 µM
same,expression level of LC3B-II,LC3B-II,increased
same,IC50,[1],18.1 ± 2.39 µM
same,IC50,[2],47.29 ± 0.35 µM
same,intracellular ROS level (DCF fluorescence),Eca-109 cells [5],increase the intracellular ROS level in a dosage-dependent manner
same,expression level of Beclin-1,Beclin-1,increased
same,green fluorescence of the JC-1 monomers (loss of MMP),"Eca-109 cells [6]; Eca-109, 20 μM",6.86%
same,green fluorescence of the JC-1 monomers (loss of MMP),"Eca-109 cells [6]; Eca-109, 40 μM",49.5%
same,expression level of p62,p62,decreased
same,"morphological changes, AO/EB staining",Eca-109 cells [7],"nuclear shrinkage, chromatin condensation, and late apoptotic cells containing red apoptotic bodies"
same,expression level of Bcl-2,Bcl-2,significantly decreased
same,cell cycle arrest (in words),Eca-109 cells [8]; Eca-109,cell cycle arrest in the G2/M phase
same,percentage of cells in S phase,"Eca-109 cells [8]; Eca-109, 20 μM",33.27%
same,percentage in the cell at the G2/M phase,"Eca-109 cells [8]; Eca-109, 20 μM",7.21%
same,percentage in the cell at the G0/G1 phase,"Eca-109 cells [8]; Eca-109, 20 μM",59.51%
same,percentage of cells in S phase,"Eca-109 cells [8]; Eca-109, 40 μM",31.32%
same,percentage in the cell at the G2/M phase,"Eca-109 cells [8]; Eca-109, 40 μM",19.84%
same,percentage in the cell at the G0/G1 phase,"Eca-109 cells [8]; Eca-109, 40 μM",48.84%
same,MDC staining intensity (autophagy level),Eca-109 cells [9],increased significantly
same,expression level of Bad,Bad,significantly increased
same,IC50,gastric cancer SGC-7901,15.7 ± 1.46 µM
same,percentage of apoptotic cells,"Eca-109 cells [3]; Eca-109, 20 μM",8.78%
same,percentage of apoptotic cells,"Eca-109 cells [3]; Eca-109, 40 μM",29.40%
same,percentage of apoptosis cells with NAC pretreatment versus without,"Eca-109 cells [3]; Eca-109, 24 h, NAC added 1 h before",reduced
same,expression level of Bax,Bax,significantly increased
"O=C([O-])[C@@H](Cc1c[nH]c2ccccc12)N=Cc1c([O-])ccc2ccccc12.[Ni+2].c1cnc2c(c1)ccc1cccnc12 [Complex 3, [Ni (Trp-naph) (phen) (CH3OH)]]",IC50,normal human cells HSF,32.5 ± 1.98 µM
same,IC50,breast cancer MCF-7,23.7 ± 0.55 µM
same,IC50,[1],21.9 ± 3.19 µM
same,IC50,[2],28.1 ± 1.34 µM
same,IC50,gastric cancer SGC-7901,24.3 ± 0.95 µM
O=C(O)[C@@H](Cc1c[nH]c2ccccc12)N=Cc1c(O)ccc2ccccc12 [Complex L3],IC50,breast cancer MCF-7,> 80 µM
same,IC50,[1],48.4 ± 4.99 µM
same,IC50,[2],> 80 µM
same,IC50,gastric cancer SGC-7901,42.7 ± 1.13 µM

# Reference: paper PMC7542481, “Synthesis of Amino Acid Schiff Base Nickel (II) Complexes as Potential Anticancer Drugs In Vitro” (Bioinorganic Chemistry and Applications, 2020)
